Results: patent US7067622B2, “Method of the solid phase synthesis of pyrrole-imidazole polyamide” (Japan Science and Technology Agency, priority 2001, dated 2006)

Tested on: DNA fragment of 450 mer
Assay: DNA alkylation experiment analysed by polyacrylamide gel electrophoresis
Format: biochemical
Protocol: (1) An DNA alkylation experiment was conducted using the above-synthesized Ac-Im-Py-β-ala-CO-Du86.
(2) A similar experiment was conducted by using Im-Im-β-ala-Py-Py-β-ala-CO-Du86. In this case, it was clarified that two imidazole portions recognized guanine in a DNA to cause a sequence-specific DNA alkylation.
(3) A similar experiment was conducted by using Ac-Im-Py-Py-γ-butyl-Py-Py-β-ala-Du86. A pyrrole-imidazole polyamide portion of this compound has a hairpin structure, and one molecule of this compound can recognize both of double strands of a DNA. Though it is known that a Py-Py pair selectively recognizes AT or TA, a Im-Py pair selectively recognizes GC, and a Py-Im pair selectively recognizes CG when the hairpin compound is combined with a DNA in accordance with the Dervan's rule, this compound includes a new pair of β-alanine pair-Im for the molecular recognition. Therefore, a new molecular recognition rule can be discovered using this compound. Accordingly, a DNA alkylation experiment was conducted to confirm the possibility. Results of the experiment are shown in FIG. 3 (DNA: pUC18III 70 nM; Reagent Concentration: 10 nM to 500 nM, 5 samples; Reaction Conditions: sodium phosphate buffer solution (1.46 mM), 37° C., 8 hours).

[1] = DNA fragment of 450 mer, polyacrylamide gel electrophoresis (FIG. 1, FIG. 2)

| Compound | DNA sequence recognized and base alkylated (sequence-specific DNA alkylation) (DNA: pUC18III 70 nM, reagent 10 nM to 500 nM, sodium phosphate buffer solution (1.46 mM), 37° C., 8 hours (FIG. 3)) | DNA sequence recognized and base alkylated (sequence-specific DNA alkylation) [1] |
| --- | --- | --- |
| COC(=O)c1c(C)[nH]c2c1[C@]13C[C@H]1CN(C(=O)CCNC(=O)c1cc(NC(=O)c4cc(NC(=O)CCCNC(=O)c5cc(NC(=O)c6cc(NC(=O)c7cc(NC(C)=O)cn7C)cn6C)cn5C)cn4C)cn1C)C3=CC2=O [Ac-Im-Py-Py-γ-butyl-Py-Py-β-ala-Du86, Ac-Im-Py-Py-γ-butyl-Py-Py-β-ala-CO-Du86] | recognizes 5′-(A/T)(A/T)(A/T)C(A/G)-3′ portion to selectively alkylates adenine of the 3′-end |  |
| COC(=O)c1c(C)[nH]c2c1C13CC1CN(C(=O)CCNC(=O)c1cc(NC(=O)c4nc(NC(C)=O)cn4C)cn1C)C3=CC2=O (stereo not drawn) [Ac-Im-Py-β-ala-CO-Du86] |  | recognized 5′-TAAA-3′ and alkylated adenine of 3′-end |
| Im-Im-β-ala-Py-Py-β-ala-CO-Du86 |  | recognized 5′-GGAGAAA-3′ and alkylated adenine of 3′-end |
